Reference: US6399629B1, “Efflux pump inhibitors” (priority 1998, dated 2002)
Counter-ions that a name gives are not always drawn.

Tested on: Pseudomonas aeruginosa PAM1001
Assay: microbe, parasite or virus in culture
Type: cell-based
Conditions: for inhibition at 2.5 µg/mL / inhibition at 5 µg/mL / inhibition at 10 µg/mL / inhibition at 20 µg/mL / inhibition at 40 µg/mL: Pseudomonas aeruginosa, PAM1001, read-out: Inhibition (%) of growth of P. aeruginosa PAM1001; for Inhibition (%) of growth of P. aeruginosa PAM1001: Levofloxacin 0.25 μg/mL
Description: For compounds labeled with the prefix ‘D’, potentiation is measured by inhibition of growth of Pseudomonas aeruginosa PAM1001 at varying concentrations of efflux pump inhibitors (EPIs) in the presence of levofloxacin (0.25 microg/mL). Bacteria are grown in Mueller Hinton Broth (MHB, Difco) with an initial inoculum of 1×10^6 CFU/mL. Kinetics of bacterial growth is monitored, during 18 h of incubation at 37° C., by measurement of the culture absorbance at 650 nm using a 96-well plate spectrophotometer (SpectraMax, Molecular Devices). The inhibitory effect of EPIs is expressed as a percentage of growth inhibition compared to a control bacterial culture grown in the presence of 0.25 microg/mL levofloxacin but without EPIs.

[1] = Concentration of Compound 2.5 μg/mL
[2] = Concentration of Compound 5 μg/mL
[3] = Concentration of Compound 10 μg/mL
[4] = Concentration of Compound 20 μg/mL
[5] = Concentration of Compound 40 μg/mL

Compound | inhibition at 2.5 µg/mL [%] | inhibition at 5 µg/mL [%] | inhibition at 10 µg/mL [%] | inhibition at 20 µg/mL [%] | inhibition at 40 µg/mL [%] | Inhibition (%) of growth of P. aeruginosa PAM1001 [1] [%] | Inhibition (%) of growth of P. aeruginosa PAM1001 [2] [%] | Inhibition (%) of growth of P. aeruginosa PAM1001 [3] [%] | Inhibition (%) of growth of P. aeruginosa PAM1001 [4] [%] | Inhibition (%) of growth of P. aeruginosa PAM1001 [5] [%]
NC[C@H](O)C(=O)N[C@H]1CN[C@H](C(=O)Nc2ccc(Oc3ccccc3)cc2)C1 [Compound D321, trans-4-((S)-3-Amino-2-Hydroxypropionylamino)-L-Proline 4-Phenoxyphenylamide Dihydrochloride] | 15 | 14 | 84 | 100 | 100 |  |  |  |  | 
NCC(=O)N[C@H]1CN[C@H](C(=O)NCC(=O)Nc2ccc(Cc3ccccc3)cc2)C1 [Compound D210, trans-4-Glycylamino-L-Prolylglycine 4-Benzylphenyl-amide Dihydrochloride] | 14 | 16 | 12 | 99 | 100 |  |  |  |  | 
NCC(=O)N[C@H]1CN[C@H](COc2cccc(-c3ccccc3)c2)C1 [Compound D502, (2S,4R)-4-Glycylamino-2-(3-Biphenyloxy)methyl-pyrrolidine Dihydrochloride] | 13 | 88 | 99 | 100 | 100 |  |  |  |  | 
trans-4-Glycylamino-L-Proline 3-Biphenylamide Dihydrochloride [Compound D306] |  |  |  |  |  | 19 | 7 | 93 | 100 | 99
NCC(=O)N[C@H]1CN[C@H](C(=O)Nc2ccc(Nc3ccccc3)cc2)C1 [Compound D304, trans-4-Glycylamino-L-Proline 4-Phenylamino-phenylamide Dihydrochloride] | 17 | 15 | 10 | -11 | 100 |  |  |  |  | 
N[C@H]1CN[C@H](C(=O)N[C@H](CCc2ccccc2)C(=O)Nc2cnc3ccccc3c2)C1 [Compound D202, trans-4-Amino-L-Prolyl-D-Homophenylalanine 3-Quinolylamide Trihydrochloride] |  |  |  | 21 | 86 |  |  |  |  | 
Cl.Cl.NCC(=O)N[C@H]1CN[C@H](C(=O)N2CCN(c3ccc(Cl)cc3)CC2)C1 (relative stereo) [Compound D403, 1-(N-trans-4-Glycylamino-L-Prolyl)-4-(4-Chlorophenyl)piperazine Dihydrochloride] |  |  |  |  |  | 25 | 22 | 22 | 4 | 61
NC[C@H]1CN[C@H](C(=O)Nc2ccc(Oc3ccccc3)cc2)C1 [Compound D331, trans-4-Aminomethyl-L-Proline 4-Phenoxyphenyl-amide Dihydrochloride] | 17 | 9 | -10 | 100 | 100 |  |  |  |  | 
NCC(=O)N[C@H]1CCN[C@H](C(=O)Nc2ccc(Oc3ccccc3)cc2)C1 [Compound D330, trans-4-Glycylamino-L-Pipecolinoyl 4-Phenoxy-phenylamide Dihydrochloride] | 19 | 18 | 12 | 100 | 100 |  |  |  |  | 
Cl.Cl.Cl.NCC(=O)N[C@@H]1CCN[C@H](C(=O)N2C[C@H](NC(=O)[C@H](O)CCc3ccccc3)C[C@H]2C(=O)Nc2cnc3ccccc3c2)C1 (relative stereo) [Compound D115, cis-4-Glycylamino-L-Pipecolinoyl-trans-4-((R)-2-Hydroxy-4-Phenylbutyrylamino)-L-Profine 3-Quinolylamide Trihydrochloride] |  |  |  |  |  | 15 | 16 | 8 | 50 | 100
Cl.Cl.NCC(=O)N[C@H]1CN[C@H](C=Cc2ccc(-c3ccccc3)cc2)C1 [Compound D801, (2S,4R)-4-Glycylamino-2-((E and Z)-4-Phenyistyryl)-pyrrolidine Dihydrochloride] |  |  |  |  |  | 8 | 63 | 99 | 99 | 99
NCC(=O)N[C@H]1CN[C@H](C(=O)N2C[C@H](NC(=O)[C@H](O)CCc3ccccc3)C[C@H]2C(=O)Nc2cnc3ccccc3c2)C1 (mixture of isomers) [Compound D103, trans-4-Glycylamino-L-Prolyl-trans-4-((R)-2-Hydroxy-4-Phenylbutyrylamino)-L-Proline 3-Quinolylamide Trihydrochloride] | 17 | 6 | 99 | 100 | 100 |  |  |  |  | 
Cl.Cl.NCC(=O)NC1CNC(C(=O)Nc2cccc(NC(=O)CCc3ccccc3)c2)C1 [Compound D701, 1-(N-trans-4-Glycylamino-L-Prolylamino)-3-(4-Phenylpropanoylamino)benzene Dihydrochloride] |  |  |  |  |  | 17 | 10 | 96 | 100 | 100
Cc1c(Cl)cccc1N1CCN(C(=O)[C@@H]2C[C@@H](CN)CN2)CC1 [Compound D407, 1-(trans-4-Aminomethyl-L-Prolyl)-4-(3-Chloro-2-methylphenyl)piperazine Dihydrochloride] | 100 | 100 | 99 | 99 | 98 |  |  |  |  | 
NCC(=O)N[C@H]1CN[C@H](C(=O)Nc2cccc(OCc3ccccc3)c2)C1 [Compound D318, trans-4-Glycylamino-L-Proline 3-Benzyloxyphenyl-amide Dihydrochloride] | 17 | 16 | 19 | 99 | 99 |  |  |  |  | 
NCC(=O)N[C@H]1CN[C@H](C(=O)Nc2ccc(Oc3ccccc3)cc2)C1 [Compound D301, trans-4Glycylamino-L-Proline 4-Phenoxyphenylamide Dihydrochloride] | 17 | 14 | 81 | 99 | 99 |  |  |  |  | 
NCC(=O)N[C@H]1CN[C@H](C(=O)N2CCN(c3ccccc3Cl)CC2)C1 [Compound D405, 1-(trans-4-Glycylamino-L-Prolyl)-4-(2-Chlorophenyl)-piperazine Dihydrochloride] | 20 | 19 | 16 | -11 | 58 |  |  |  |  | 
Cc1cc(NC(=O)[C@@H](CCc2ccccc2)NC(=O)[C@@H]2C[C@@H](NC(=O)CN)CN2)ccc1Cl [Compound D206, trans-4-Glycylamino-L-Prolyl-D-Homophenylalanine 4-Chloro-3-Methylphenylamide Dihydrochloride] | 16 | 10 | 100 | 99 | 100 |  |  |  |  | 
NCCC[C@H](N)C(=O)N1C[C@@H](NC(=O)CCCc2ccccc2)C[C@H]1C(=O)Nc1ccc2c(c1)CCC2 [Compound D122, L-Ornithyl-cis-4-(4-phenylbutanoyl)amino-L-proline 5-Indanylamide] | 16 | 99 | 100 | 100 | 99 |  |  |  |  | 
Cl.Cl.Cl.NCC(=O)N[C@H]1CN[C@H](C(=O)Nc2cnc3ccc(Cc4ccccc4)cc3c2)C1 (relative stereo) [Compound D327, trans-4-Glycylamino-L-Proline 3-(6-Benzyl)quinolyl-amide Trihydrochloride] |  |  |  |  |  | 20 | 19 | 99 | 100 | 100
Cc1ccc(Oc2ccc(NC(=O)[C@@H]3C[C@@H](NC(=O)CN)CN3)cc2)cc1 [Compound D302, trans-4-Glycylamino-L-Proline 4-(4′-Methylphenoxy)-phenylamide Dihydrochloride] | 22 | 17 | 97 | 100 | 100 |  |  |  |  | 
N[C@H]1CCN[C@H](C(=O)N2C[C@H](NC(=O)[C@H](O)CCc3ccccc3)C[C@H]2C(=O)Nc2cnc3ccccc3c2)C1 (mixture of isomers) [Compound D112, trans-4-Amino-L-Pipecolinoyl-trans-4-((R)-2-Hydroxy-4-Phenylbutyrylamino)-L-Proline 3-Quinolylamide Trihydrochloride] | 20 | 20 | 17 | 58 | 101 |  |  |  |  | 
